# Results taken from patent publication EP0286418A1, “Anti-retroviral agents and delivery systems for the same” (priority 1987, dated 1988).
# Experiments:
# [1] = trypan blue exclusion test; assay type: cell-based; details: human, 8.e6 and u.1 cells; at all doses; read-out: viable cells (trypan blue exclusion)
# Text: Tritiated thymidine uptake was used to assess toxic effects of ddCTP liposomes on the lymphoid (8.E6) and promonocytic (U.1) clones. […] As judged by trypan blue exclusion test, the cells remained more than 90% viable at all doses.
# [2] = system: adherent human monocytes; assay: uptake of dideoxynucleotides; assay type: cell-based; details: 37°C, drug 1 uM
# Protocol: Uptake of ₃H-deoxyctidine triphosphate (³H-dCTP) was used as an indicator of the uptake of vesicle contents by cells. Uptake experiments were done by plating 5 × 10⁶ monocytes in each well of a 6-well microtiter plate (Costar) and adding reagents one or two days later. Incubations were done in DMEM-GG-FCS at 37°C. The rate of increase of dCTP content in the cells over a 9-hour period (Table 7) averaged 0.29 pmole/million cells/hr with liposomes containing 4 mM EPC. Other experiments established that ddCTP and ddCMP are not readily taken up by the cells (Table 9).
# [3] = capture / encapsulation volume of ddCTP liposomes; assay type: physicochemical
# Protocol: The amount of lipid in the preparation was determined from ¹⁴C counts (¹⁴C-cholesteryl oleate) in a standard beta counting scintillation fluid. The amount of ddCTP was assessed from the optical density at 280 nm. Samples for optical density reading were prepared by adding 0.9 ml of 65:25 chloroform ethanol solution to 0.5 ml of the sample. This eliminated light scatter that would otherwise have resulted from the presence of lipid particles. Negative staining electron microscopy was performed using glow-discharged formvar-carbon coated grids and sodium phosphotungstate. Release of ddCTP from liposomes was assessed by dialysis of samples against phosphate buffered saline. The integrity of ddCTP was assessed by high-performance gradient-elution anion exchange chromatography.
# The amounts of lipid and ddCTP in the preparation were calculated from ¹⁴C and ³H counts, respectively. Encapsulation was generally in the range of 1.5 - 2 microliters/micromole EPC. The size distribution of liposomes was determined by quasi-elastic light-scattering (QELS) using an N4MD multiple-angle submicron particle size analyzer (Coulter, Hialeah, Fla., USA). […] The profile is substantially similar to that of a fresh preparation. The weight average diameter was about 215 nm with the coefficient of variation being about 100 nm.
smiles,measurement,setting,value
"Nc1ccn([C@H]2CC[C@@H](COP(=O)(O)OP(=O)(O)OP(=O)(O)O)O2)c(=O)n1 [ddCTP, 2ʹ,3ʹ-dideoxycytidine-5ʹ-triphosphate]",viability,[1],> 90%
same,pmole drug/1 million cells (mean),[2]; 0. h,0.15 pmole drug/1 million cells
same,pmole drug/1 million cells (mean),[2]; 0.33 h,0.09 pmole drug/1 million cells
same,pmole drug/1 million cells (mean),[2]; 1.00 h,0.09 pmole drug/1 million cells
same,pmole drug/1 million cells (mean),[2]; 3.00 h,0.11 pmole drug/1 million cells
same,pmole drug/1 million cells (mean),[2]; 6.00 h,0.33 pmole drug/1 million cells
same,pmole drug/1 million cells (mean),[2]; 9.00 h,0.43 pmole drug/1 million cells
same,pmole drug/1 million cells (mean),[2]; 20.00 h,0.66 pmole drug/1 million cells
same,calculated capture,[3]; Example 1 liposomes (DPPC/DPPG/cholesterol),2.6 microliters/micromole lipid
same,Encapsulation,[3]; Example 2 liposomes (EPC/PS/cholesterol),1.5 - 2 microliters/micromole EPC
